Source: ChEMBL document CHEMBL4364276, “Discovery of 4-phenyl-2H-benzo[b][1,4]oxazin-3(4H)-one derivatives as potent and orally active PI3K/mTOR dual inhibitors” (Eur J Med Chem, 2019)

Assays:
[1] = molecular target: Inhibitor of nuclear factor kappa-B kinase subunit alpha (Homo sapiens) (UniProt O15111); assay: Inhibition of human IKKalpha at 100 nM using KKKKERLLDDRHDSGLDSMKDEE as substrate by [gamma-33P]-ATP assay
[2] = molecular target: RAC-alpha serine/threonine-protein kinase (Homo sapiens) (UniProt P31749); assay: Inhibition of human AKT1 at 100 nM using KGSGSGRPRTSSFAEG as substrate by [gamma-33P]-ATP assay
[3] = molecular target: [Pyruvate dehydrogenase (acetyl-transferring)] kinase isozyme 1, mitochondrial (Homo sapiens) (UniProt Q15118); assay: Inhibition of human PDK1 at 100 nM using MBP as substrate by [gamma-33P]-ATP assay
[4] = molecular target: Casein kinase I isoform gamma-3 (Homo sapiens) (UniProt Q9Y6M4); assay: Inhibition of human CK1gamma3 at 100 nM using KRRRAL[pS]VASLPGL as substrate by [gamma-33P]-ATP assay
[5] = molecular target: Tyrosine-protein kinase TXK (Homo sapiens) (UniProt P42681); assay: Inhibition of human TXK at 100 nM using EAIYAAPFAKKK as substrate by [gamma-33P]-ATP assay
[6] = molecular target: Fibroblast growth factor receptor 3 (Homo sapiens) (UniProt P22607); assay: Inhibition of human FGFR3 at 100 nM using poly[Glu:Tyr] (4:1) as substrate by [gamma-33P]-ATP assay
[7] = molecular target: MAP/microtubule affinity-regulating kinase 4 (Homo sapiens) (UniProt Q96L34); assay: Inhibition of human MARK4 at 100 nM using KKKVSRSGLYRSPSMPENLNRPR as substrate by [gamma-33P]-ATP assay
[8] = molecular target: Epidermal growth factor receptor (Homo sapiens) (UniProt P00533); assay: Inhibition of human EGFR at 100 nM using poly[Glu:Tyr] (4:1) as substrate by [gamma-33P]-ATP assay
[9] = Clearance in Sprague-Dawley rat at 1 mg/kg, iv measured upto 24 hrs by LC-MS/MS analysis; format: ADME, organism-based; details: in vivo
[10] = molecular target: Ephrin type-A receptor 6 (Homo sapiens) (UniProt Q9UF33); assay: Inhibition of human EPHA6 at 100 nM using poly[Glu:Tyr] (4:1) as substrate by [gamma-33P]-ATP assay
[11] = molecular target: Calcium/calmodulin-dependent protein kinase kinase 1 (Homo sapiens) (UniProt Q8N5S9); assay: Inhibition of human CAMKK1 at 100 nM using MBP as substrate by [gamma-33P]-ATP assay
[12] = molecular target: Phosphorylase b kinase gamma catalytic chain, skeletal muscle/heart isoform (Homo sapiens) (UniProt Q16816); assay: Inhibition of human PHKgamma1 at 100 nM using MBP as substrate by [gamma-33P]-ATP assay
[13] = molecular target: Membrane-associated tyrosine- and threonine-specific cdc2-inhibitory kinase (Homo sapiens) (UniProt Q99640); assay: Inhibition of human PKMYT1 at 100 nM using MBP as substrate by [gamma-33P]-ATP assay
[14] = molecular target: Tyrosine-protein kinase Fgr (Homo sapiens) (UniProt P09769); assay: Inhibition of human FGR at 100 nM using poly[Glu:Tyr] (4:1) as substrate by [gamma-33P]-ATP assay
[15] = molecular target: Mitogen-activated protein kinase kinase kinase 6 (Homo sapiens) (UniProt O95382); assay: Inhibition of human MEKK6 at 100 nM using MBP as substrate by [gamma-33P]-ATP assay
[16] = molecular target: Cyclin-dependent kinase 5/CDK5 activator 1 (Homo sapiens) (UniProt Q00535+Q15078); assay: Inhibition of human CDK5/p25 at 100 nM using histone H1 as substrate by [gamma-33P]-ATP assay; format: protein-complex assay
[17] = molecular target: CDK9/Cyclin-T2 (Homo sapiens) (UniProt P50750+O60583); assay: Inhibition of human CDK9/cyclin-T2 at 100 nM using KTFCGTPEYLAPEVRREPRILSEEEQEMFRDFDYIADWC as substrate by [gamma-33P]-ATP assay; format: protein-complex assay
[18] = molecular target: Proto-oncogene tyrosine-protein kinase ROS (Homo sapiens) (UniProt P08922); assay: Inhibition of human ROS at 100 nM using KKKSPGEYVNIEFG as substrate by [gamma-33P]-ATP assay
[19] = molecular target: Serine/threonine-protein kinase STK11 (Homo sapiens) (UniProt Q15831); assay: Inhibition of human LKB1 at 100 nM using LSNLYHQGKFLQTFCGSPLYRRR as substrate by [gamma-33P]-ATP assay
[20] = molecular target: Serine/threonine-protein kinase 32B (Homo sapiens) (UniProt Q9NY57); assay: Inhibition of human STK32B at 100 nM using MBP as substrate by [gamma-33P]-ATP assay
[21] = molecular target: Casein kinase II subunit alpha (Homo sapiens) (UniProt P68400); assay: Inhibition of human CK2A at 100 nM using RRRDDDSDDD as substrate by [gamma-33P]-ATP assay
[22] = molecular target: Dual specificity testis-specific protein kinase 2 (Homo sapiens) (UniProt Q96S53); assay: Inhibition of human TESK2 at 100 nM using cofilin as substrate by [gamma-33P]-ATP assay
[23] = molecular target: Muscle, skeletal receptor tyrosine-protein kinase (Homo sapiens) (UniProt O15146); assay: Inhibition of human MUSK at 100 nM using MBP as substrate by [gamma-33P]-ATP assay
[24] = molecular target: CDK6/cyclin D3 (Homo sapiens) (UniProt P30281+Q00534); assay: Inhibition of human CDK6/cyclin-D3 at 100 nM using RB protein as substrate by [gamma-33P]-ATP assay; format: protein-complex assay
[25] = molecular target: Calcium/calmodulin-dependent protein kinase type II subunit delta (Homo sapiens) (UniProt Q13557); assay: Inhibition of human CAMK2D at 100 nM using KKLNRTLSFAEPG as substrate by [gamma-33P]-ATP assay
[26] = molecular target: Serine/threonine-protein kinase 24 (Homo sapiens) (UniProt Q9Y6E0); assay: Inhibition of human MST3 at 100 nM using MBP as substrate by [gamma-33P]-ATP assay
[27] = molecular target: Casein kinase I isoform epsilon (Homo sapiens) (UniProt P49674); assay: Inhibition of human CK1E at 100 nM using KRRRAL[pS]VASLPGL as substrate by [gamma-33P]-ATP assay
[28] = molecular target: CDK1/Cyclin E (Homo sapiens) (UniProt P06493+P24864); assay: Inhibition of human CDK1/cyclinE at 100 nM using RB protein as substrate by [gamma-33P]-ATP assay; format: protein-complex assay
[29] = molecular target: Tyrosine-protein kinase receptor TYRO3 (Homo sapiens) (UniProt Q06418); assay: Inhibition of human TYRO3 at 100 nM using poly[Glu:Tyr] (4:1) as substrate by [gamma-33P]-ATP assay
[30] = molecular target: CDK9/Cyclin K (Homo sapiens) (UniProt P50750+O75909); assay: Inhibition of human CDK9/cyclin-K at 100 nM using KTFCGTPEYLAPEVRREPRILSEEEQEMFRDFDYIADWC as substrate by [gamma-33P]-ATP assay; format: protein-complex assay

Sequence of Fibroblast growth factor receptor 3 (Homo sapiens) (P22607 23-806 limits assumed): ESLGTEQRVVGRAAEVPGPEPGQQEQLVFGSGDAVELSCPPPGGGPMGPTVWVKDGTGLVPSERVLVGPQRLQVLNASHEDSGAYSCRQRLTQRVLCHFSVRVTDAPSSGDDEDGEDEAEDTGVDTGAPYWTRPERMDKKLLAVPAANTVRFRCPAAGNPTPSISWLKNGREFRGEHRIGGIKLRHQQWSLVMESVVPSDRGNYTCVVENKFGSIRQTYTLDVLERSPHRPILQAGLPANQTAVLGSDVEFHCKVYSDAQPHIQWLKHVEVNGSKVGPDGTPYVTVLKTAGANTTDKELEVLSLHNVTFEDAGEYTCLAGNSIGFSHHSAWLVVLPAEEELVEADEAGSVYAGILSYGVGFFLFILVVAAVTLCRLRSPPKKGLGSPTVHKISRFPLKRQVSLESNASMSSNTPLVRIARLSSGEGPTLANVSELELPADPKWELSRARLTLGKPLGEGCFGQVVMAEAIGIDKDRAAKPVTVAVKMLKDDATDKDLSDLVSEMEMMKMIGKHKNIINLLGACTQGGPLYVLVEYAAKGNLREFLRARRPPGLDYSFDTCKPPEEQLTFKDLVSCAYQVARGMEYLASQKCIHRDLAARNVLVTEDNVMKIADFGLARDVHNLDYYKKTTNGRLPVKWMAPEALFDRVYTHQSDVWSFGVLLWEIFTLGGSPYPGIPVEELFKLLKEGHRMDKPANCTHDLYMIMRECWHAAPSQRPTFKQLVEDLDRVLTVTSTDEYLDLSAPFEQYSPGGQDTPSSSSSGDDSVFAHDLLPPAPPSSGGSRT
Sequence of Ephrin type-A receptor 6 (Homo sapiens) (Q9UF33 whole entry): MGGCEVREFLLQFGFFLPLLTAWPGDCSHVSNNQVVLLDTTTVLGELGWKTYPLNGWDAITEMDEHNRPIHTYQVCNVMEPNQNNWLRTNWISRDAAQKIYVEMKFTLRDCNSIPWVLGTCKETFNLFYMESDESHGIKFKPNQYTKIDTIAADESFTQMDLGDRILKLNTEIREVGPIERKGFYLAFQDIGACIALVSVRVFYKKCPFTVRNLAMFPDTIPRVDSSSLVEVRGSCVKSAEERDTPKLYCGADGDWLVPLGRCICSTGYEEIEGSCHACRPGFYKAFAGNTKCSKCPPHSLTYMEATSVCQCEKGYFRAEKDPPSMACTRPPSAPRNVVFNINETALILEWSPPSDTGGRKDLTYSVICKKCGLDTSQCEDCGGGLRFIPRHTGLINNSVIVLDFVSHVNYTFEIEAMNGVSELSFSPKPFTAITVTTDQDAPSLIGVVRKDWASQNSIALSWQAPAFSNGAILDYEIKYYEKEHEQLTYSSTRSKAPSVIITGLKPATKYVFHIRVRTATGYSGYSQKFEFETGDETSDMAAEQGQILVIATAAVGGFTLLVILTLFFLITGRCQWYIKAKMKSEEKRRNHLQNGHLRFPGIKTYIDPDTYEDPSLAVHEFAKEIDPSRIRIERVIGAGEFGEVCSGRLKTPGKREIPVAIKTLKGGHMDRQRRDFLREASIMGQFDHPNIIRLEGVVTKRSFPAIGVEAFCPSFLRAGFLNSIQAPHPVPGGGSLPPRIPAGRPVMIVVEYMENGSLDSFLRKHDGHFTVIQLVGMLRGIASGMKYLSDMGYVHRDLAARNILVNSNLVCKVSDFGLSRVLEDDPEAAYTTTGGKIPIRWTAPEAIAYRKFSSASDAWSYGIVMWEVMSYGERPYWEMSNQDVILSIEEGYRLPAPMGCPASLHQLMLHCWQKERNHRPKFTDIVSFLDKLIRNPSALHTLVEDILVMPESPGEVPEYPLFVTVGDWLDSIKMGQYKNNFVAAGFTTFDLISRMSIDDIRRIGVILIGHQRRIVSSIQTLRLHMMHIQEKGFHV
Sequence of Tyrosine-protein kinase TXK (Homo sapiens) (P42681 whole entry): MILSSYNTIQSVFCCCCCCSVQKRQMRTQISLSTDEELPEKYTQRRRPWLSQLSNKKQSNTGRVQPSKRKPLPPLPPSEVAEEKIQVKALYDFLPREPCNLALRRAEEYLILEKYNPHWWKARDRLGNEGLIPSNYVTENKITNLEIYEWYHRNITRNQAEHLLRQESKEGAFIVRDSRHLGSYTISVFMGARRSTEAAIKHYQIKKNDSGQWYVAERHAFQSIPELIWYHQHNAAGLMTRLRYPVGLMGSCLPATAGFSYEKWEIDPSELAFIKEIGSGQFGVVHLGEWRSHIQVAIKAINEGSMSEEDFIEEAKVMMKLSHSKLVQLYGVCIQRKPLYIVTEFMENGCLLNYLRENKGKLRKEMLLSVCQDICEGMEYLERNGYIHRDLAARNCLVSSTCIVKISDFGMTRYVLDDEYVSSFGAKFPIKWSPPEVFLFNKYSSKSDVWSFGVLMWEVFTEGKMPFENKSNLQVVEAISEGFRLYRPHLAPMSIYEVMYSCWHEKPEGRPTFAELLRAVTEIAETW
Sequence of MAP/microtubule affinity-regulating kinase 4 (Homo sapiens) (Q96L34 whole entry): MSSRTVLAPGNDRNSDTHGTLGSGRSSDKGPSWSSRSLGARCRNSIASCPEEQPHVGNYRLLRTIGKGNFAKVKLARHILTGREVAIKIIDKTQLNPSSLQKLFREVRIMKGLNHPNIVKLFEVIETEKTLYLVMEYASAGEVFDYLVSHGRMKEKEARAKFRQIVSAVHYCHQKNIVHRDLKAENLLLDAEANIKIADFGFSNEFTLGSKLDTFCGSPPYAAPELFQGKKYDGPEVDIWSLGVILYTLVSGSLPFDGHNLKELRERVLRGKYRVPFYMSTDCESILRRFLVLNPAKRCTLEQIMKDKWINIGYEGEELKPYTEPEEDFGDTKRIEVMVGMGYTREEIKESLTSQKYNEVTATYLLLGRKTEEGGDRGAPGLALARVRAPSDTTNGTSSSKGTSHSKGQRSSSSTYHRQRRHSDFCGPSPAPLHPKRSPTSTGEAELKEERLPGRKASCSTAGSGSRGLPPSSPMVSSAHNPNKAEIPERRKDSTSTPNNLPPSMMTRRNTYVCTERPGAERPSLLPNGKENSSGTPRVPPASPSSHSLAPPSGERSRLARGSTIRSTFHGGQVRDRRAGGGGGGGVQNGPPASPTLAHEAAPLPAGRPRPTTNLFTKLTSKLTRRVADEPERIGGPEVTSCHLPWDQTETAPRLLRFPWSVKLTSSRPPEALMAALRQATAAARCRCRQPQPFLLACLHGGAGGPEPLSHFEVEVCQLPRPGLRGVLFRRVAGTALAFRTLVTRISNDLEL
Sequence of Dual specificity testis-specific protein kinase 2 (Homo sapiens) (Q96S53 whole entry, looked up): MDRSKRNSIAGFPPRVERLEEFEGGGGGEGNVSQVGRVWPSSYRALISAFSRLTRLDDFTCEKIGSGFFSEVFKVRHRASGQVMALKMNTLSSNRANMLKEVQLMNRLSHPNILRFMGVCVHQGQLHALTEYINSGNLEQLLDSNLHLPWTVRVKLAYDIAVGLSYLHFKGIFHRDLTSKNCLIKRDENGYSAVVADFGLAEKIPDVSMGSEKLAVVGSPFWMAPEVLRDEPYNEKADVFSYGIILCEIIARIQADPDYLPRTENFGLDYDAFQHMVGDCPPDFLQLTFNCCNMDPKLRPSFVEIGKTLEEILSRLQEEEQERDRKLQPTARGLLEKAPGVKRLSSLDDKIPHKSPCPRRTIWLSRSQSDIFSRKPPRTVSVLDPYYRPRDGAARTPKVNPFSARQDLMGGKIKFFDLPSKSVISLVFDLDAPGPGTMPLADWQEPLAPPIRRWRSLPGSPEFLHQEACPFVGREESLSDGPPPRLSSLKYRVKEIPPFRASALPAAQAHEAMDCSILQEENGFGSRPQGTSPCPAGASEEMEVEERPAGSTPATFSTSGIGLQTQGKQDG
Sequence of Cyclin-dependent kinase 5/CDK5 activator 1 (Homo sapiens) (Q00535 whole entry): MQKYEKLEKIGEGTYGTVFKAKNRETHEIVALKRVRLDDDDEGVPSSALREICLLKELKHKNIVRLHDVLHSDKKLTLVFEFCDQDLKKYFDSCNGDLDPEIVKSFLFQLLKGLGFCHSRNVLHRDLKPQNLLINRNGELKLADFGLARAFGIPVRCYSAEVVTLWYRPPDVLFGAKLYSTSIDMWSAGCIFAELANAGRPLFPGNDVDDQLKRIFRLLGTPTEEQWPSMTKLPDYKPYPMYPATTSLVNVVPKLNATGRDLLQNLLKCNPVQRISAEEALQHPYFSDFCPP
Sequence of Cyclin-dependent kinase 5/CDK5 activator 1 (Homo sapiens) (Q15078 99-307 partner limits assumed): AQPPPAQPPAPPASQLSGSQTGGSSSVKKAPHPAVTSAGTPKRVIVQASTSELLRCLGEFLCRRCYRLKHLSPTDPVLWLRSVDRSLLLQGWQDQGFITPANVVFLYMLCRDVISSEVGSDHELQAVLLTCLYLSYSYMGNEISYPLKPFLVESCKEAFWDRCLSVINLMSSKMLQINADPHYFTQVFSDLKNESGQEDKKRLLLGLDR
Sequence of Muscle, skeletal receptor tyrosine-protein kinase (Homo sapiens) (O15146 whole entry): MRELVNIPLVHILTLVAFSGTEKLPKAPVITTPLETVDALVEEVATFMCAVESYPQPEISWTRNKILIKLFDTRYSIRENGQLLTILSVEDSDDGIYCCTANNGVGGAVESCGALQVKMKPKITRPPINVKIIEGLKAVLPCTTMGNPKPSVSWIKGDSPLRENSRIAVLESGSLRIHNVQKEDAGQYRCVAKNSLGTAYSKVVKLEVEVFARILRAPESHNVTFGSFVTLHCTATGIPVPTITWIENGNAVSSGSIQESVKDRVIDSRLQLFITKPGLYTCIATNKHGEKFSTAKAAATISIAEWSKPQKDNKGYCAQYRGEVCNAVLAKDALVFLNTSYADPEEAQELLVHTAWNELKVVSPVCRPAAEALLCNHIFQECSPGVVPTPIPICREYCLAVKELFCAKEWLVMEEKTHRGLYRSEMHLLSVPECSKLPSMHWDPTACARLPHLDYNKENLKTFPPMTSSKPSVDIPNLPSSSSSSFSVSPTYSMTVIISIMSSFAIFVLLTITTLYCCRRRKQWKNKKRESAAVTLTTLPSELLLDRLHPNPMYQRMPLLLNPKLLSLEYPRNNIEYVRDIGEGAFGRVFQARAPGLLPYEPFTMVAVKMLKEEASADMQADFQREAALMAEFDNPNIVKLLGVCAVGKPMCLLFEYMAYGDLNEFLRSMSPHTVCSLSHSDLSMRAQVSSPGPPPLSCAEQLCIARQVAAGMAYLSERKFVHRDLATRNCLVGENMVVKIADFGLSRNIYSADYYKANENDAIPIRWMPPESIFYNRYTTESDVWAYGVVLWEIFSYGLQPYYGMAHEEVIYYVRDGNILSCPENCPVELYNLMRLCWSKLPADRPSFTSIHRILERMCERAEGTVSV

COc1ccc(N2C(=O)COc3ccc(-c4cnc(OC)c(NS(=O)(=O)c5ccc(F)cc5)c4)cc32)cc1
inhibition [1]: -2.43% | inhibition [2]: 18.2% | inhibition [3]: 25.8% | inhibition [4]: -3.55% | inhibition [5]: 9.62% | inhibition [6]: -7.49% | inhibition [7]: 1.56% | inhibition [8]: 8.4% | clearance [9]: 8.56 mL/min/kg | inhibition [10]: -9.63% | inhibition [11]: 14.3% | inhibition [12]: 12.3% | inhibition [13]: 14% | inhibition [14]: 5.02% | inhibition [15]: 3.96% | inhibition [16]: 9.26% | inhibition [17]: 31.9% | inhibition [18]: 15.3% | inhibition [19]: -3.12% | inhibition [20]: -3.89% | inhibition [21]: 12.7% | inhibition [22]: 0.47% | inhibition [23]: -3.79% | inhibition [24]: 3.81% | inhibition [25]: 22.6% | inhibition [26]: 10.6% | inhibition [27]: 3.34% | inhibition [28]: 7.09% | inhibition [29]: 3.03% | inhibition [30]: 9.26%
